# According to US20060165683A1, “Methods and compositions for control of bone formation via modulation of sympathetic tone” (priority 2001, published 2006):
# What was measured:
# [1] = system: murine primary osteoblasts; assay: cAMP production in murine primary osteoblasts; assay type: cell-based, mouse; conditions: added with isoproterenol or norepinephrine
# Method: (§1) Primary osteoblast cultures were established as previously described (see, e.g., Ducy et al., 2000, Cell 100: 197-207) and maintained in αMEM/0.1 mg/ml ascorbic acid supplemented with 10% FBS. SaOS-2 were grown in MEM/10% FBS. For cAMP assay confluent cultures were incubated with serum free medium containing 100 μM IBMX (3-isobutyl-1-methylxanthine, Sigma) for 8 minutes before PBS, PTH(1-34) (Bachem), isoproterenol, norepinephrine, phenylephrine (Sigma) or propranolol were added for 5 min. Intracellular cAMP concentration was measured by immunoassay (R&D Systems). For gene expression analyses, primary osteoblasts were treated for 72 hours with appropriate drugs in 0.1% FBS. Hormone serum levels were quantified using immunoassays kits from Peninsula Laboratories (Insulin) or Alpco Diagnostics (leptin). Deoxypyridinoline cross-links and Creatinine were measured in morning urines using the Quidel kits. a1(I) leptin bioactivity was verified by cotransfection of 293 cells expressing ObRb with a STAT3-responsive-luc reporter construct, pSVβgal plasmid and a1(I) leptin expression vector or mock. Twenty-four hours later luciferase and β-galactosidase activities were measured. Data represents ratios of luciferase/β-galactosidase activities, and values are mean of 6 independent transfection experiments.
# For a sympathetic regulation of bone formation to exist several requirements have to be fulfilled. The first one is that functional adrenergic receptors are present on osteoblasts. […] Immunohistochemical analysis of long bones from transgenic mice expressing LacZ under the control of the osteoblast-specific fragment of the a1(I) collagen promoter verified the presence of β2-adrenergic receptors on osteoblasts (FIG. 13B). No other adrenergic receptor subtype could be detected. […] Electron micrographs confirmed the presence of unmyelinated peripheral nerve axons coursing through the marrow adjacent to bone trabeculae and to osteoblasts (FIG. 13E). β-adrenergic receptors are G-coupled receptors that signal through the cAMP pathway (see, e.g., Benovic et al., 1988, Annu Rev Cell Biol 4:405-428). Thus, to assess the biologic relevance of the presence of β2-adrenergic receptors on osteoblasts, these cells were treated with isoproterenol, a β-adrenergic agonist, alone or in the presence of propranolol, a β-adrenergic receptor antagonist; with norepinephrine, the natural ligand of β-adrenergic receptors; with phenylephrine, an α-adrenergic agonist or with vehicle and measured cAMP production. As a positive control, parathyroid hormone (PTH) that binds to another G-coupled receptor present in osteoblasts was used (Gardella & Juppner, 2001, Trends Endocrinol Metab 12:210-217.). […] These effects were abolished by propranolol treatment. […]
# [2] = system: human SaOS-2 osteoblastic cells; assay: cAMP production in human SaOS-2 osteoblastic cells; assay type: cell-based; conditions: SaOS-2, added to β-adrenergic receptor agonists
# Method: as §1
# For a sympathetic regulation of bone formation to exist several requirements have to be fulfilled. The first one is that functional adrenergic receptors are present on osteoblasts. […] No other adrenergic receptor subtype could be detected. […] Thus, to assess the biologic relevance of the presence of β2-adrenergic receptors on osteoblasts, these cells were treated with isoproterenol, a β-adrenergic agonist, alone or in the presence of propranolol, a β-adrenergic receptor antagonist; with norepinephrine, the natural ligand of β-adrenergic receptors; with phenylephrine, an α-adrenergic agonist or with vehicle and measured cAMP production. […]
# [3] = system: primary osteoblasts; assay: Gene expression and apoptosis in primary osteoblasts; assay type: cell-based, mouse; conditions: primary osteoblasts, isoproterenol plus propranolol
# Method: as §1
# To elucidate the bases of the antiosteogenic effect of isoproterenol in vivo, osteoblast proliferation, gene expression and apoptosis were studied.
# [4] = system: wt mice; assay: Propranolol treatment of wt mice; assay type: in vivo, mouse
# Method: (§2) Wildtype (C57BL/6J) and mutant (C57BL/6J A^y/a, C57BL/6J ob/ob) mice were obtained from the Jackson laboratory and adrenal medullectomized mice from Harlan Tecklad laboratory. Dbh−/− mice were rescued as previously described (Thomas et al., 1998, Neurochem 70:2468-2476). Isoproterenol (Sigma) was injected intraperitoneally (ip) once daily for 6 weeks at 30 mg/kg (wt) or 3 mg/kg (ob/ob). Propranolol (Sigma) was added to the drinking water at a concentration of 0.5 g/l. For ICV infusion, a 28-gauge cannula (Brain infusion kit II, Alza) was implanted into the third ventricle as previously described infusing human leptin (Sigma) at 8 ng/hr or MT-II at 125 ng/hr (Phoenix Pharmaceuticals) for 28 days (see, e.g., Ducy et al., 2000, Cell 100: 197-207). The cannula was connected to an osmotic pump (Alza) placed in the dorsal subcutaneous space of the animal. For parabiosis longitudinal incisions were made in the skin and in the peritoneal cavity along one side on each mouse. Edges of the incisions were connected by suture to induce coelioanastomosis. Cross-circulation was quantified by injecting 1 ml/kg 0.25% Evans blue into the tail vein of one mouse of the parabiosed pair. After 30 min. blood was collected from both mice by retroorbital bleeding and the blood exchange rate was calculated according to standard techniques (see, e.g., Harris & Martin, 1984, Am J Physiol 247:R380-386). […] Two weeks after parabiosis a pump delivering leptin ICV in one animal of each pair was implanted. For GTG lesioning, 4-week-old C57BL/6J mice were given a single ip injection of either PBS or GTG (0.5 mg/g). For MSG lesioning, 2 day-old C57BL/6J pups were injected daily subcutaneously with either PBS or MSG (2 mg/g) for 10 days.
# Histological analyses were performed on undecalcified sections stained by von Kossa and counterstained by von Gieson (see, e.g., Ducy et al., 2000, Cell 100:197-207). Static and dynamic histomorphometric analyses were performed according to standard protocols (see, e.g., Parfitt et al., 1987, J Bone Miner Res 6:595-610) using the Osteomeasure Analysis System (Osteometrics, Atlanta). Six to 12 animals were analyzed for each group. Statistical significance was assessed by Student's t test.
# as §1
# The most important biomedical requirement for regulation of bone formation by the SNS is that β-adrenergic antagonists (β blockers) should increase bone mass by increasing bone formation. To address this point, wt mice were treated for 5 weeks with propranolol (0.4 mg/day). […] In some propranolol-treated mice the bone volume matched what is observed in ob/ob mice. […]
# [5] = system: ovariectomized wt mice; assay: Propranolol treatment of ovariectomized wt mice; assay type: in vivo, mouse
# Method: as §2
# To test if it was the case ovariectomy in 6 week-old wt mice was performed and the mice were treated for 7 weeks with propranolol or vehicle. Estrogen depletion by ovariectomy decreased bone mass in vehicle-treated mice. […] This latter result underscores the physiologic and therapeutic importance of the sympathetic regulation of bone formation.
# [6] = system: rats; conditions: rats treated with propranolol; cited from earlier work
structure (smiles),measurement,setting,value
CC(C)NCC(O)COc1cccc2ccccc12 (stereo not shown) [propranolol],effect on agonist-induced cAMP production,[1],abolished
same,effect on agonist-induced cAMP production,[2],inhibited
same,inhibitory effect of isoproterenol on gene expression,[3],reversed
same,Bone Volume,[4]; Wild-type + propranolol,High
same,hyperinsulinism or other hormonal modifications,[4]; wt mice,did not cause
same,body weight and fat pad weight,"[4]; wt mice, 5 weeks, 0.4 mg/day",remained normal
same,bone formation rate,"[4]; wt mice, 5 weeks, 0.4 mg/day",increase
same,number of osteoblasts,"[4]; wt mice, 5 weeks, 0.4 mg/day",increase
same,bone mass in vertebrae and long bones,"[4]; wt mice, 5 weeks, 0.4 mg/day (drinking water 0.5 g/l)",significant increase
same,bone formation rate vs control ovariectomized mice,"[5]; ovariectomized mice, 7 weeks",striking increase
same,osteoblast number vs control ovariectomized mice,"[5]; ovariectomized mice, 7 weeks",striking increase
same,bone mass,"[5]; ovariectomy at 6 weeks of age, treated for 7 weeks",normal
same,femoral metaphyseal mineral apposition rates,[6],Increased
